# Test results as given in ChEMBL document CHEMBL3885881, “DrugMatrix”.
# Species on record: Rattus norvegicus
# Assay: DrugMatrix - Regimen: Daily Repeat
# Format: toxicity, organism-based, Sprague-Dawley
# Parameters: regimen Daily Repeat, gender Male, age 6-8 weeks
# Details: in vivo, sc, route subcutaneous, vehicle 100 % WATER; for ABSOLUTE BASOPHIL / ABSOLUTE EOSINOPHIL / ABSOLUTE LYMPHOCYTE / ABSOLUTE MONOCYTE / ABSOLUTE SEGMENTED NEUTROPHIL / BASOPHIL / EOSINOPHIL / ERYTHROCYTE COUNT / HEMATOCRIT / HEMOGLOBIN / LEUKOCYTE COUNT / LYMPHOCYTE / MEAN CORPUSCULAR HEMOGLOBIN / MEAN CORPUSCULAR HEMOGLOBIN CONCENTRATION / MEAN CORPUSCULAR VOLUME / MONOCYTE / NEUTROPHIL / NUCLEATED RED BLOOD CELLS / PLATELET COUNT: tissue Blood; for ALANINE AMINOTRANSFERASE / ALBUMIN / ALKALINE PHOSPHATASE / ASPARTATE AMINOTRANSFERASE / BLOOD UREA NITROGEN / CARBON DIOXIDE / CHLORIDE / CHOLESTEROL / CREATINE PHOSPHOKINASE / CREATININE / GLUCOSE / LACTATE DEHYDROGENASE / LIPASE / PHOSPHORUS / POTASSIUM / SODIUM / TOTAL BILIRUBIN / TOTAL PROTEIN / URIC ACID: tissue Plasma
# [1] = 20 mg/kg, 72 h, dose level Low, time 3 day
# [2] = 20 mg/kg, 120 h, dose level Low, time 5 day
# [3] = 71 mg/kg, 72 h, dose level High, time 3 day
# [4] = 71 mg/kg, 120 h, dose level High, time 5 day
smiles,measurement,setting,value
CCN(CC)CC(=O)Nc1c(C)cccc1C [LIDOCAINE],ABSOLUTE BASOPHIL,[1],0 CELLS/uL
same,ABSOLUTE EOSINOPHIL,[1],58 CELLS/uL
same,ABSOLUTE LYMPHOCYTE,[1],13101.33 CELLS/uL
same,ABSOLUTE MONOCYTE,[1],107 CELLS/uL
same,ABSOLUTE SEGMENTED NEUTROPHIL,[1],1100.33 CELLS/uL
same,BASOPHIL,[1],0%
same,EOSINOPHIL,[1],0.33%
same,ERYTHROCYTE COUNT,[1],5.32 x10E6/uL
same,HEMATOCRIT,[1],35.17%
same,HEMOGLOBIN,[1],13.77 G/DL
same,LEUKOCYTE COUNT,[1],14.37 x10E3/uL
same,LYMPHOCYTE,[1],91.33%
same,MEAN CORPUSCULAR HEMOGLOBIN,[1],25.9 pg
same,MEAN CORPUSCULAR HEMOGLOBIN CONCENTRATION,[1],39.17 G/DL
same,MEAN CORPUSCULAR VOLUME,[1],66.2 fL
same,MONOCYTE,[1],0.67%
same,NEUTROPHIL,[1],7.67%
same,NUCLEATED RED BLOOD CELLS,[1],0 /100WBC
same,PLATELET COUNT,[1],1245 x10E3/uL
same,ALANINE AMINOTRANSFERASE,[1],52.67 u/L
same,ALBUMIN,[1],4.23 G/DL
same,ALKALINE PHOSPHATASE,[1],369 u/L
same,ASPARTATE AMINOTRANSFERASE,[1],87.33 u/L
same,BLOOD UREA NITROGEN,[1],16 mg/dL
same,CARBON DIOXIDE,[1],26.67 mmol/L
same,CHLORIDE,[1],102.67 MEQ/L
same,CHOLESTEROL,[1],79.33 mg/dL
same,CREATINE PHOSPHOKINASE,[1],215.67 u/L
same,CREATININE,[1],0.21 mg/dL
same,GLUCOSE,[1],154.67 mg/dL
same,LACTATE DEHYDROGENASE,[1],355.67 u/L
same,LIPASE,[1],9.67 u/L
same,PHOSPHORUS,[1],15.3 mg/dL
same,POTASSIUM,[1],7.3 MEQ/L
same,SODIUM,[1],148.67 MEQ/L
same,TOTAL BILIRUBIN,[1],0.23 mg/dL
same,TOTAL PROTEIN,[1],6.03 G/DL
same,URIC ACID,[1],1.9 mg/dL
same,ABSOLUTE BASOPHIL,[2],0 CELLS/uL
same,ABSOLUTE EOSINOPHIL,[2],102.67 CELLS/uL
same,ABSOLUTE LYMPHOCYTE,[2],14629.33 CELLS/uL
same,ABSOLUTE MONOCYTE,[2],338.67 CELLS/uL
same,ABSOLUTE SEGMENTED NEUTROPHIL,[2],1862.67 CELLS/uL
same,BASOPHIL,[2],0%
same,EOSINOPHIL,[2],0.67%
same,ERYTHROCYTE COUNT,[2],5.48 x10E6/uL
same,HEMATOCRIT,[2],33.93%
same,HEMOGLOBIN,[2],13.57 G/DL
same,LEUKOCYTE COUNT,[2],16.93 x10E3/uL
same,LYMPHOCYTE,[2],86.67%
same,MEAN CORPUSCULAR HEMOGLOBIN,[2],24.77 pg
same,MEAN CORPUSCULAR HEMOGLOBIN CONCENTRATION,[2],40 G/DL
same,MEAN CORPUSCULAR VOLUME,[2],61.93 fL
same,MONOCYTE,[2],2%
same,NEUTROPHIL,[2],10.67%
same,NUCLEATED RED BLOOD CELLS,[2],0 /100WBC
same,PLATELET COUNT,[2],1256.33 x10E3/uL
same,ALANINE AMINOTRANSFERASE,[2],59.33 u/L
same,ALBUMIN,[2],3.73 G/DL
same,ALKALINE PHOSPHATASE,[2],375.67 u/L
same,ASPARTATE AMINOTRANSFERASE,[2],92 u/L
same,BLOOD UREA NITROGEN,[2],17.67 mg/dL
same,CARBON DIOXIDE,[2],26 mmol/L
same,CHLORIDE,[2],108 MEQ/L
same,CHOLESTEROL,[2],77.33 mg/dL
same,CREATINE PHOSPHOKINASE,[2],284 u/L
same,CREATININE,[2],0.28 mg/dL
same,GLUCOSE,[2],183.33 mg/dL
same,LACTATE DEHYDROGENASE,[2],154.67 u/L
same,LIPASE,[2],7.67 u/L
same,PHOSPHORUS,[2],13.6 mg/dL
same,POTASSIUM,[2],6.31 MEQ/L
same,SODIUM,[2],149.97 MEQ/L
same,TOTAL BILIRUBIN,[2],0.2 mg/dL
same,TOTAL PROTEIN,[2],5.93 G/DL
same,URIC ACID,[2],2.2 mg/dL
same,ABSOLUTE BASOPHIL,[3],0 CELLS/uL
same,ABSOLUTE EOSINOPHIL,[3],49.33 CELLS/uL
same,ABSOLUTE LYMPHOCYTE,[3],11993.67 CELLS/uL
same,ABSOLUTE MONOCYTE,[3],172.33 CELLS/uL
same,ABSOLUTE SEGMENTED NEUTROPHIL,[3],684.67 CELLS/uL
same,BASOPHIL,[3],0%
same,EOSINOPHIL,[3],0.33%
same,ERYTHROCYTE COUNT,[3],5.73 x10E6/uL
same,HEMATOCRIT,[3],35.87%
same,HEMOGLOBIN,[3],14.23 G/DL
same,LEUKOCYTE COUNT,[3],12.9 x10E3/uL
same,LYMPHOCYTE,[3],92.67%
same,MEAN CORPUSCULAR HEMOGLOBIN,[3],24.83 pg
same,MEAN CORPUSCULAR HEMOGLOBIN CONCENTRATION,[3],39.7 G/DL
same,MEAN CORPUSCULAR VOLUME,[3],62.57 fL
same,MONOCYTE,[3],1.33%
same,NEUTROPHIL,[3],5.67%
same,NUCLEATED RED BLOOD CELLS,[3],0 /100WBC
same,PLATELET COUNT,[3],1268.67 x10E3/uL
same,ALANINE AMINOTRANSFERASE,[3],46.33 u/L
same,ALBUMIN,[3],4.37 G/DL
same,ALKALINE PHOSPHATASE,[3],401 u/L
same,ASPARTATE AMINOTRANSFERASE,[3],83.67 u/L
same,BLOOD UREA NITROGEN,[3],14.67 mg/dL
same,CARBON DIOXIDE,[3],31.33 mmol/L
same,CHLORIDE,[3],101 MEQ/L
same,CHOLESTEROL,[3],76 mg/dL
same,CREATINE PHOSPHOKINASE,[3],167 u/L
same,CREATININE,[3],0.16 mg/dL
same,GLUCOSE,[3],163.67 mg/dL
same,LACTATE DEHYDROGENASE,[3],124.67 u/L
same,LIPASE,[3],8.67 u/L
same,PHOSPHORUS,[3],15.9 mg/dL
same,POTASSIUM,[3],7.01 MEQ/L
same,SODIUM,[3],145.9 MEQ/L
same,TOTAL BILIRUBIN,[3],0.17 mg/dL
same,TOTAL PROTEIN,[3],6.07 G/DL
same,URIC ACID,[3],1.8 mg/dL
same,ABSOLUTE BASOPHIL,[4],0 CELLS/uL
same,ABSOLUTE EOSINOPHIL,[4],73.33 CELLS/uL
same,ABSOLUTE LYMPHOCYTE,[4],17902.33 CELLS/uL
same,ABSOLUTE MONOCYTE,[4],276 CELLS/uL
same,ABSOLUTE SEGMENTED NEUTROPHIL,[4],1781.67 CELLS/uL
same,BASOPHIL,[4],0%
same,EOSINOPHIL,[4],0.33%
same,ERYTHROCYTE COUNT,[4],5.66 x10E6/uL
same,HEMATOCRIT,[4],36.7%
same,HEMOGLOBIN,[4],14.53 G/DL
same,LEUKOCYTE COUNT,[4],20.03 x10E3/uL
same,LYMPHOCYTE,[4],89%
same,MEAN CORPUSCULAR HEMOGLOBIN,[4],25.67 pg
same,MEAN CORPUSCULAR HEMOGLOBIN CONCENTRATION,[4],39.6 G/DL
same,MEAN CORPUSCULAR VOLUME,[4],64.93 fL
same,MONOCYTE,[4],1.33%
same,NEUTROPHIL,[4],9.33%
same,NUCLEATED RED BLOOD CELLS,[4],0 /100WBC
same,PLATELET COUNT,[4],1384.67 x10E3/uL
same,ALANINE AMINOTRANSFERASE,[4],60 u/L
same,ALBUMIN,[4],4.13 G/DL
same,ALKALINE PHOSPHATASE,[4],376.33 u/L
same,ASPARTATE AMINOTRANSFERASE,[4],98.33 u/L
same,BLOOD UREA NITROGEN,[4],15.33 mg/dL
same,CARBON DIOXIDE,[4],33.67 mmol/L
same,CHLORIDE,[4],101 MEQ/L
same,CHOLESTEROL,[4],68.33 mg/dL
same,CREATINE PHOSPHOKINASE,[4],240.33 u/L
same,CREATININE,[4],0.42 mg/dL
same,GLUCOSE,[4],147.33 mg/dL
same,LACTATE DEHYDROGENASE,[4],198 u/L
same,LIPASE,[4],10.67 u/L
same,PHOSPHORUS,[4],14.23 mg/dL
same,POTASSIUM,[4],6.88 MEQ/L
same,SODIUM,[4],148.27 MEQ/L
same,TOTAL BILIRUBIN,[4],0.2 mg/dL
same,TOTAL PROTEIN,[4],6.17 G/DL
same,URIC ACID,[4],1.4 mg/dL
